For one series, the target named is T1, Cytochrome P450 2C8 (Homo sapiens, UniProt P10632).
T1 sequence (P10632 whole entry): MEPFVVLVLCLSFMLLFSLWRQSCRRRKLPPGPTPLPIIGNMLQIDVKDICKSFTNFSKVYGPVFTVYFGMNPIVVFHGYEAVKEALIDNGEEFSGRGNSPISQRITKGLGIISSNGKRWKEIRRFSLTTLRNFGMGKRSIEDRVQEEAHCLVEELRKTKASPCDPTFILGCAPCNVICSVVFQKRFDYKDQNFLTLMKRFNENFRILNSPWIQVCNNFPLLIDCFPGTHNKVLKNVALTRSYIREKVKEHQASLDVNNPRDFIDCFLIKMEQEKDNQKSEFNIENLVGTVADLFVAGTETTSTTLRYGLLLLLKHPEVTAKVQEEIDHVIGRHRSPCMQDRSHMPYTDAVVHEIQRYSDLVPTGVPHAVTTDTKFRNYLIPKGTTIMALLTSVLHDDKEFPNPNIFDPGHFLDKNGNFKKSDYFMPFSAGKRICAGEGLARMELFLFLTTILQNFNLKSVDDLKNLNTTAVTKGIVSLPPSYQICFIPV
As to the kind of experiment: Inhibition of CYP2C8 (unknown origin). The class given is ADME.

Series [1] deals with T2, Cytochrome P450 3A4 (Homo sapiens, UniProt P08684). As to the kind of experiment: Inhibition of CYP3A4 (unknown origin) using BFC as substrate. Format: ADME.
T2 sequence (P08684 whole entry): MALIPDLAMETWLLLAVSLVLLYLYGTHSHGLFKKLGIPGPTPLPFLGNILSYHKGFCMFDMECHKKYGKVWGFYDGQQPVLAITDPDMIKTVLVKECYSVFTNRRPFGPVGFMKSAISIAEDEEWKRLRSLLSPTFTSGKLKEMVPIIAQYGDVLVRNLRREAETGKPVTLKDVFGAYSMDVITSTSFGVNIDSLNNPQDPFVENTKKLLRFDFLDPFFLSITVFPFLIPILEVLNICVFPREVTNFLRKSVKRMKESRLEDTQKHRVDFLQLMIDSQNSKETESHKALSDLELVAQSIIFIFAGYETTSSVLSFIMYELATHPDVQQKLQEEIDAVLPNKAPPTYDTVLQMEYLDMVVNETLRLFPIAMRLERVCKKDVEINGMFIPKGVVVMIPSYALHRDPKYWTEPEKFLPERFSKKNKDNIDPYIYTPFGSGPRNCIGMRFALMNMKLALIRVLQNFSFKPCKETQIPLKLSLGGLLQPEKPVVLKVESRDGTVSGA
A further series has as its target T3, Toll-like receptor 7 (Mus musculus, UniProt P58681).
T3 sequence (P58681 whole entry): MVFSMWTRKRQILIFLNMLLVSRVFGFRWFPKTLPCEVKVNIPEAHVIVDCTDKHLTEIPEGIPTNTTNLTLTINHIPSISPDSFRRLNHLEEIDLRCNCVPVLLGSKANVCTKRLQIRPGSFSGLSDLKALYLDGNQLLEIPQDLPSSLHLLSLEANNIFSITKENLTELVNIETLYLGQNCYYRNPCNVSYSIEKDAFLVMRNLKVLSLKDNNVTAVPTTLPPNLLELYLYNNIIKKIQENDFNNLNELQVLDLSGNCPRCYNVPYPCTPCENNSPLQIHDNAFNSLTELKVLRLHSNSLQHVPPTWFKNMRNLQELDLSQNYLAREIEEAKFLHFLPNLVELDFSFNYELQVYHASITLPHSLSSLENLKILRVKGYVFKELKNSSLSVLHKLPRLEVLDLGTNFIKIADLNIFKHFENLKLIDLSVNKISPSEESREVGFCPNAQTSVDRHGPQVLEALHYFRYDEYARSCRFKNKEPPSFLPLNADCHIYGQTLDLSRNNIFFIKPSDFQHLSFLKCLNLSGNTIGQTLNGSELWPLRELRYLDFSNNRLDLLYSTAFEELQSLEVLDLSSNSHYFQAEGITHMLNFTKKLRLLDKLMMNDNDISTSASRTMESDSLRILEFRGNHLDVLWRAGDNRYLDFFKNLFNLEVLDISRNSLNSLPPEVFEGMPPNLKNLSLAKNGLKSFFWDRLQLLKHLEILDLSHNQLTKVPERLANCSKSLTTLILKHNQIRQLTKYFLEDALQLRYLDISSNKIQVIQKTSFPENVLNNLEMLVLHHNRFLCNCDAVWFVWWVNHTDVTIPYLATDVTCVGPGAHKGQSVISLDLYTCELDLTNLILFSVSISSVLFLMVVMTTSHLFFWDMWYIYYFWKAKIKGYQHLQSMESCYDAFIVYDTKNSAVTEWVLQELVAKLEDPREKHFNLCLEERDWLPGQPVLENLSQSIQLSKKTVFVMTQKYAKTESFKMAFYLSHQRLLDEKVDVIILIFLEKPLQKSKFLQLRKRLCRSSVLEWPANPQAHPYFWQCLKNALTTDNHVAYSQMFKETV
Kind of series: Agonist activity at mouse TLR7.

Series [2] is described as follows: Cytotoxicity against PHA-activated T-cells (unknown origin) assessed as inhibition of IL-2 induced cell proliferation measured after 72 hrs by MTS assay. Format: toxicity, cell-based. For orientation: Formazan colour is commonly taken as a measure of viable cells.
The target in series [3] is T2, Cytochrome P450 3A4. As to the kind of experiment: Inhibition of CYP3A4 (unknown origin) using BFC as substrate preincubated with compound followed by substrate addition at 5 mins. The class given is ADME.
The target of a further series is Cytochrome P450 2C19 (Homo sapiens, UniProt P33261). Kind of series: Inhibition of CYP2C19 (unknown origin). The class given is ADME.
Sequence of Cytochrome P450 2C19 (P33261 whole entry): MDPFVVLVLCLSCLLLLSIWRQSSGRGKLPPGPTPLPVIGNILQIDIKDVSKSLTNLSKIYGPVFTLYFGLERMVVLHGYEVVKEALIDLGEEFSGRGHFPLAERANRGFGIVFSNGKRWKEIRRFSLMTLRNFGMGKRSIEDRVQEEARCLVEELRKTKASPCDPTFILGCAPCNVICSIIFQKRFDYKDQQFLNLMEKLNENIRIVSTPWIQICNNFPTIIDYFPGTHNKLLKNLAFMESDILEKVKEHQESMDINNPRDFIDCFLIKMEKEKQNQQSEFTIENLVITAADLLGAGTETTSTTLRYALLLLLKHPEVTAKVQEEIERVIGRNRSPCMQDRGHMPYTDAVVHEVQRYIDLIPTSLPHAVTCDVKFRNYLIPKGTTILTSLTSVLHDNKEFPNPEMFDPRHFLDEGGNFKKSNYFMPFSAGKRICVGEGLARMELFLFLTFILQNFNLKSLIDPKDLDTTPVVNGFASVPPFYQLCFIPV
The next series addresses Cytochrome P450 2D6 (Homo sapiens, UniProt P10635). As to the kind of experiment: Inhibition of CYP2D6 (unknown origin). Format: ADME.
Series [4] has as its target Voltage-gated inwardly rectifying potassium channel KCNH2 (Homo sapiens, UniProt Q12809). As to the kind of experiment: Inhibition of hERG. The class given is toxicity.
Series [5] can be described thus: Metabolic stability in human liver microsomes assessed as compound remaining at 0.5 uM incubated for 10 mins in presence of NADPH by UV absorbance based assay. The class given is ADME, Microsome. The conditions noted are these: read-out: Stability. (Liver microsomes are vesicles of endoplasmic reticulum, rich in cytochrome P450 enzymes.)
Series [6] concerns the target T2, Cytochrome P450 3A4. As to the kind of experiment: Inhibition of CYP3A4 (unknown origin) using BFC as substrate preincubated with compound followed by substrate addition at 30 mins. The class given is ADME.
For the next series, the target named is T4, Cytochrome P450 1A2 (Homo sapiens, UniProt P05177).
T4 sequence (P05177 whole entry): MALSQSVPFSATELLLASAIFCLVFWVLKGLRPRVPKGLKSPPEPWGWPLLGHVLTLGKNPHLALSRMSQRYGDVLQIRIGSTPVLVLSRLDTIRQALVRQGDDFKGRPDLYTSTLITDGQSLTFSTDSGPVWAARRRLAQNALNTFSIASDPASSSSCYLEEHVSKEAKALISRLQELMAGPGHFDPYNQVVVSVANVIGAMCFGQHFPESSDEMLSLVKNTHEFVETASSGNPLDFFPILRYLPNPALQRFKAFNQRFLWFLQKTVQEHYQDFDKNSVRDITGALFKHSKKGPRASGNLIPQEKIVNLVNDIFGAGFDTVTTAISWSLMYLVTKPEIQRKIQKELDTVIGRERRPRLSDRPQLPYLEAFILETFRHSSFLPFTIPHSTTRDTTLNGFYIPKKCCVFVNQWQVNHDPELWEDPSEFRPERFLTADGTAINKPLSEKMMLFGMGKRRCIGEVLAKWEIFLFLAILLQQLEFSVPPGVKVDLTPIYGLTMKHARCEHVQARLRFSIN
As to the kind of experiment: Inhibition of CYP1A2 (unknown origin). The class given is ADME.

The target in a further series is Cytochrome P450 2C9 (Homo sapiens, UniProt P11712). Kind of series: Inhibition of CYP2C9 (unknown origin). The class given is ADME.
Sequence of Cytochrome P450 2C9 (P11712 whole entry): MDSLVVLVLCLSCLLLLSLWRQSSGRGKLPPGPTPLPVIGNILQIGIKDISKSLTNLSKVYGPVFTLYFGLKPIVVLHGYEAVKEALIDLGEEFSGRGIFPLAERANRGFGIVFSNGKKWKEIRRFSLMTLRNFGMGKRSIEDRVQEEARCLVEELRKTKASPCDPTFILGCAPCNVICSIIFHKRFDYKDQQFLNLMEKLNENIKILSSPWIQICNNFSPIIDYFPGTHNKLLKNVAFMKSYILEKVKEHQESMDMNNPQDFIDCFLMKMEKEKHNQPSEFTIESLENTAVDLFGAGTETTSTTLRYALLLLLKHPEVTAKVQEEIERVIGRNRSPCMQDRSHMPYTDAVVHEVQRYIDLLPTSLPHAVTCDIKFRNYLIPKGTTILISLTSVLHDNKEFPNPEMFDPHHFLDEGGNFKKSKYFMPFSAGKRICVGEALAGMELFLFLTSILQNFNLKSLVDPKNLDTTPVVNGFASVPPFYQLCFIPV
Series [7] in a line: Metabolic stability in mouse liver microsomes assessed as compound remaining at 0.5 uM incubated for 10 mins in presence of NADPH by UV absorbance based assay. The class given is ADME, Microsome. The conditions noted are these: read-out: Stability.

Where only a bound is given, the exact number is not on record here.

Broadly, the IC50 is the concentration needed to halve the response being measured. As usually defined, the EC50 is the concentration that produces a half-maximal response. A low value points to a more potent agent.

Sequence of Cytochrome P450 2D6 (P10635 whole entry): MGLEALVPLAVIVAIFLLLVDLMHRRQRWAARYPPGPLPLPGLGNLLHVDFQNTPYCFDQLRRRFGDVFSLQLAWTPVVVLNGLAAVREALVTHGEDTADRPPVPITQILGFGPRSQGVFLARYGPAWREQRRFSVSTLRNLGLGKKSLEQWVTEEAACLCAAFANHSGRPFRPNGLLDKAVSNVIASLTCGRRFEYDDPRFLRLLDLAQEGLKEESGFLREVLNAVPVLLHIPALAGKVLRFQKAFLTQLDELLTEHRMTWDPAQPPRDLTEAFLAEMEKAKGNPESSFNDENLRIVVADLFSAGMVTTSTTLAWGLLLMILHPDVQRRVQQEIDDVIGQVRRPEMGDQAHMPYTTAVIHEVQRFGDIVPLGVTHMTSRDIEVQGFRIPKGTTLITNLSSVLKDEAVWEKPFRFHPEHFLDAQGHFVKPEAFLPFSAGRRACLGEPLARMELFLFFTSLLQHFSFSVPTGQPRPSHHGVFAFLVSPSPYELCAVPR
Sequence of Voltage-gated inwardly rectifying potassium channel KCNH2 (Q12809 whole entry): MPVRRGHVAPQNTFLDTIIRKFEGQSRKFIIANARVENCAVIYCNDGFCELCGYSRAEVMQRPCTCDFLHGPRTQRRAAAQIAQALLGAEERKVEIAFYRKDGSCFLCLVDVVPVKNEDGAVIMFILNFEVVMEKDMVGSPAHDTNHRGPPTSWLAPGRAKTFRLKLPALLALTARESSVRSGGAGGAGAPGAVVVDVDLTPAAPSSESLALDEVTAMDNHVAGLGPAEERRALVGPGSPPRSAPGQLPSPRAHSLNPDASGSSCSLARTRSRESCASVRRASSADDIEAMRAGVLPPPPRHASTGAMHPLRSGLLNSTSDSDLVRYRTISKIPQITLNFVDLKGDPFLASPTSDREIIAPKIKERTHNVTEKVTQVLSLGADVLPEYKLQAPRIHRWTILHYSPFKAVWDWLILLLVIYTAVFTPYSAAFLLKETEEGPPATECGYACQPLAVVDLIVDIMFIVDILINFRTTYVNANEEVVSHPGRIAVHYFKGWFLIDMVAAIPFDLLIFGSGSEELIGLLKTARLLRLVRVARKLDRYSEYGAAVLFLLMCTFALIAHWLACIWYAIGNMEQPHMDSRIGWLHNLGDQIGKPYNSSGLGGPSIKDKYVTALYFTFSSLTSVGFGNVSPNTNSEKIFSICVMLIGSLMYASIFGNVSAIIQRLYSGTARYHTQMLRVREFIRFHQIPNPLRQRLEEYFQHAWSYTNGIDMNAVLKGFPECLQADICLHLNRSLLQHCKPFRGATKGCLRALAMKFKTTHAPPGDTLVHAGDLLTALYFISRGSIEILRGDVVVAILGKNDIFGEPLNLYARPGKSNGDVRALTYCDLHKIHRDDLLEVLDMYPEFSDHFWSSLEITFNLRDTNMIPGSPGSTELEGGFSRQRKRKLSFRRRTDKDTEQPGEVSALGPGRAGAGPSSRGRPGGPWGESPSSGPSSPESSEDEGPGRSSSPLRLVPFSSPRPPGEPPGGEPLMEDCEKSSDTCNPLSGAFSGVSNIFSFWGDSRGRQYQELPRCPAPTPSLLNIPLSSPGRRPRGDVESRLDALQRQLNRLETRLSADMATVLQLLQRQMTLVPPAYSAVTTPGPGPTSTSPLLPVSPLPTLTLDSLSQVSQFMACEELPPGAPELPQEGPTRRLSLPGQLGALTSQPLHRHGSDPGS

As for `CCC[C@@H](CCO)Nc1nc(N)nc2cnn(Cc3ncc(C4=CC5(CCN(C6CCOCC6)CC5)C4)cc3OC)c12`, the IC50 is more than 20 µM at Cytochrome P450 2C8; more than 20 µM on Cytochrome P450 3A4 [1]; more than 20 µM on Cytochrome P450 3A4 [3]; more than 20 µM on Cytochrome P450 2C19; more than 20 µM at Cytochrome P450 2D6; more than 100 µM in series [4]. Moreover, the IC50 at Cytochrome P450 3A4 [6], against Cytochrome P450 1A2 and against Cytochrome P450 2C9 was more than 20 µM throughout. At Toll-like receptor 7, this compound had an EC50 of 0.127 µM. Besides, in [2], the IC50 at 72 h came out at 7.2 µM. For the same compound, the remaining at 10 min, 0.5 µM is 75% in [5] and 86% in [7].

With `CCC[C@@H](CCO)Nc1nc(N)nc2cnn(Cc3ncc(C4CC5(C4)CN(C(C)C)C5)cc3OC)c12`, the “inhibition (INH)” value (at Cytochrome P450 2C8 (human); against Cytochrome P450 3A4 [1] (human); against Cytochrome P450 2C19 (human); against Cytochrome P450 2D6 (human); in [4] (human); at Cytochrome P450 1A2 (human)) was “Not Active” in each case. The “inhibition (INH)” value against Cytochrome P450 2C9 (human) is given as “Not Active”. At Toll-like receptor 7, this compound registered an EC50 of 0.626 µM. In addition, the IC50 at 72 h in series [2] was more than 25 µM.

With `CCCCNc1nc(N)nc2cnn(Cc3ccc(CNC4CCC4)cc3OC)c12`, the IC50 on Cytochrome P450 2C8 is more than 20 µM; on Cytochrome P450 3A4 [1] it was 8.14 µM; on Cytochrome P450 3A4 [3], 14.2 µM; against Cytochrome P450 2C19, more than 20 µM; on Cytochrome P450 2D6 it was 1.12 µM; in series [4], 24 µM. Besides, the IC50 against Cytochrome P450 1A2 and on Cytochrome P450 2C9 was more than 20 µM each time. Besides, the IC50 at 72 h in [2] came out at 15 µM. Also, the figures for the remaining at 10 min, 0.5 µM in series [5] and in [7] were 45% and 3%, respectively.

Regarding `CCCCNc1nc(N)nc2cnn(Cc3ccc(C4CCNCC4)cc3OC)c12`, the IC50 was 4.97 µM against Cytochrome P450 2C8; more than 20 µM at Cytochrome P450 3A4 [1]; more than 20 µM on Cytochrome P450 3A4 [3]; 9.42 µM against Cytochrome P450 2C19; 14.2 µM against Cytochrome P450 2D6; 4 µM in [4]. Moreover, the IC50 on Cytochrome P450 3A4 [6], at Cytochrome P450 1A2 and at Cytochrome P450 2C9 was more than 20 µM in each case. In addition, the EC50 at Toll-like receptor 7 was found to be 0.074 µM. For the same compound, in [2], the IC50 at 72 h is more than 25 µM. In addition, the figures for the remaining at 10 min, 0.5 µM in series [5] and in series [7] were 89% and 54%, respectively.

`CCC[C@@H](CCO)Nc1nc(N)nc2cnn(Cc3ncc(C4=CC5(CCN(C(C)C)CC5)C4)cc3OC)c12`: the concentration for half-maximal inhibition (IC50) against Cytochrome P450 2C8 was more than 20 µM; against Cytochrome P450 3A4 [1] it was more than 20 µM; on Cytochrome P450 3A4 [3], more than 20 µM; against Cytochrome P450 2C19 it was more than 20 µM; at Cytochrome P450 2D6, more than 20 µM; in series [4], 62 µM. Further, the IC50 on Cytochrome P450 3A4 [6], against Cytochrome P450 1A2 and on Cytochrome P450 2C9 was more than 20 µM in each case. This compound showed an EC50 at Toll-like receptor 7 of 0.159 µM. Also, the IC50 at 72 h in [2] stood at 16 µM. Besides, the results for the remaining at 10 min, 0.5 µM in series [5] and in series [7] were 72% and 83%, respectively.

On to `CCC[C@@H](CCO)Nc1nc(N)nc2cnn(Cc3ncc(C4=CC5(CCNCC5)C4)cc3OC)c12`, for which the IC50 was more than 20 µM against Cytochrome P450 2C8; more than 20 µM against Cytochrome P450 3A4 [1]; more than 20 µM on Cytochrome P450 3A4 [3]; more than 20 µM against Cytochrome P450 2C19; more than 20 µM at Cytochrome P450 2D6; 10 µM in series [4]. Besides, the 50% inhibitory concentration (IC50) at Cytochrome P450 3A4 [6], at Cytochrome P450 1A2 and at Cytochrome P450 2C9 was more than 20 µM throughout. In addition, the response on Toll-like receptor 7 was half-maximal at 1.91 µM (EC50). In addition, in series [2], the IC50 at 72 h was more than 25 µM. The values for the remaining at 10 min, 0.5 µM in series [5] and in [7] were 80% and 93%, respectively.

As to `CCCCNc1nc(N)nc2c(C)nn(Cc3ncc(C4CCNCC4)cc3OC)c12`, the IC50 on Cytochrome P450 2C8 was more than 20 µM; against Cytochrome P450 3A4 [1], 1 µM; at Cytochrome P450 3A4 [3] it was 1.21 µM; on Cytochrome P450 2C19 it was more than 20 µM; on Cytochrome P450 2D6, more than 20 µM; in series [4], more than 50 µM. Moreover, the figures for the IC50 at Cytochrome P450 3A4 [6], against Cytochrome P450 1A2 and on Cytochrome P450 2C9 were 1 µM, more than 20 µM and more than 20 µM, respectively. For the same compound, the EC50 on Toll-like receptor 7 was more than 5 µM. Moreover, the IC50 at 72 h in series [2] is more than 25 µM. Further, the remaining at 10 min, 0.5 µM turned out to be 95% in series [5] and 71% in series [7].
